{"source": "patent US20060193832A1", "about": "“Use of the sodium iodine symporter to effect uptake of iodine” (priority 2005, published 2006)", "key": {"NIS [1]": {"target": "T1, NIS (Homo sapiens, UniProt Q92911)", "T1 sequence (Q92911 1-643)": "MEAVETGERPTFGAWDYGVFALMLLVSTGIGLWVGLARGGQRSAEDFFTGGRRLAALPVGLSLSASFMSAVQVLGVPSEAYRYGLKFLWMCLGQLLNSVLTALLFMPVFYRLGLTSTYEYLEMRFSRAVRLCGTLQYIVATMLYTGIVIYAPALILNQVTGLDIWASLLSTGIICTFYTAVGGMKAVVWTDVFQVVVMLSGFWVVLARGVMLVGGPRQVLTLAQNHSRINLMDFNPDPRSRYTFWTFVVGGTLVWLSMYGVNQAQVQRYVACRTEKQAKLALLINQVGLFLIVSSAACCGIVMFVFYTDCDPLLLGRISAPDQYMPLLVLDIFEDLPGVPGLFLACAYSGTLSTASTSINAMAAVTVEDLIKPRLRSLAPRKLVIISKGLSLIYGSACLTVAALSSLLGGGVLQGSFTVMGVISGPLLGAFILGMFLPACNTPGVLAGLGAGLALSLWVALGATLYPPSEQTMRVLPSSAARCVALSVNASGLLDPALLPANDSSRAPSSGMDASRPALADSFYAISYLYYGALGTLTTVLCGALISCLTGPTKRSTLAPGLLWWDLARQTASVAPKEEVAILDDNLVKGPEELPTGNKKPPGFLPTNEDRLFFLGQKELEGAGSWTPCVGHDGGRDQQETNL", "assay": "Perchlorate inhibition of NIS-mediated radioiodide uptake in FaDu cells", "type": "cell-based", "parameters": "The full-length hNIS cDNA was digested from this plasmid and ligated into the pacAd5 CMV K—N pA shuttle vector; expressed in transfected cells", "conditions": "1 mM sodium perchlorate added before radioiodide, Ad-hNIS-transduced FaDu cells", "procedure": "Radioiodide Uptake and Efflux. Cells (2.5×10^5) were seeded in each well of 12-well plates on day 1. Twelve hours later, 40 multiplicity of infection (MOI; the ratio of infectious viral particles to cells) of adenovirus was added to each well. Twenty-four hours later, 2 μCi of sodium [^125I] iodide (New England Nuclear, North Billerica, Mass.) was added to each well, and the plates were incubated for 1 hour at 37° C. […] Medium was then removed, and cells were washed once with PBS. Plates were then exposed overnight on a phosphor imaging screen, and signal intensity was determined with a Typhoon 9400 imager (Amersham Biosciences, Buckinghamshire, England). Signal intensity was compared with that of standards of known activity. […] To determine the rate of [^125I] iodide efflux from cells, uptake was performed as previously described."}, "[2]": {"tested_on": "NIS expressing human tumor xenograft of FaDu carcinoma cells", "conditions": "4.2 Gy delivered to the tumor", "excerpt": "To begin to address this issue, the inventors have established a method to estimate dosimetry based on gamma camera imaging of ^131I uptake and retention using a pinhole collimator. […] Data collected from the pinhole collimator gamma camera imaging has enabled us to calculate doses delivered to tumor xenografts and therefore to perform comparative dosimetry between different isotopes such as ^131I and ^188ReO4—."}, "[3]": {"tested_on": "hNIS stable expressing FaDu transfectants", "procedure": "In Vivo Tumor Growth. […] Twenty-four hours later, cells were trypsinized, washed, and resuspended in PBS. […] After allowing 48 hours for engraftment of tumor cells, 1 mCi of [^131I] iodide was injected intraperitoneally into each mouse. Second, to assess the effects of genetically targeted radiotherapy on established tumors, 5×10^6 stably transfected NIS-expressing FaDu cells or their parental counterparts were injected subcutaneously into both flanks of athymic mice. The tumors were allowed to grow to an average tumor diameter of 5 mm and then 1 mCi of [^131I] iodide was injected intraperitoneally into each mouse. In both experiments, tumor sizes were recorded in three dimensions every 2 days. Average tumor diameters were determined by taking the cube root of tumor width×length×depth. The experiments were terminated when the average tumor diameter exceeded 10 mm. All animal studies were performed in accordance with the Public Health Service policy on Humane Care and Use of Laboratory Animals, the NIH Guide for the Care and Use of Laboratory Animals, and the Animal elfare Act (7 U.S.C. et seq.); the animal use protocol was approved by the Institutional Animal Care and Use Committee (IACUC) of the University of Iowa."}, "[4]": {"tested_on": "NIS-expressing F98 gliomas", "conditions": "rats bearing NIS-expressing F98 gliomas; cited from earlier work"}, "[5]": {"tested_on": "NIS-expressing tumor tissue", "assay": "Gamma camera imaging of 188ReO4 uptake in Ad-NIS injected tumor bearing mouse", "type": "in vivo", "conditions": "2 hours after systemic administration", "text": "As discussed in detail below, the beta particle emitted from ^188Re is more energetic than that of ^131I and can travel a further distance in tissue, thus may be well suited to use in the context of larger tumors that are found in human head and neck cancer."}, "NIS [6]": {"target": "T1, NIS", "conditions": "stably transfected cell lines; cited from earlier work"}, "[7]": {"conditions": "radionuclide half-life; cited from earlier work"}, "Ad-NIS infected cells": {"tested_on": "Ad-NIS infected cells", "assay": "Iodide retention with recombinant LPO during the efflux period", "type": "cell-based", "conditions": "recombinant LPO present during efflux period, 2 hours of efflux", "text": "The inventors are also exploring other novel methods to enhance iodine retention in cells and, to this end, they have examined the effect of lactoperoxidase (LPO) on iodide organification and retention in NIS+ cell populations."}, "[8]": {"conditions": "sixty days after [131I] iodide administration"}}, "note": "“Also recorded” adds a separate entry of the source.", "data": [{"compound": "[Na+].[O-][Cl+3]([O-])([O-])[O-]", "note": "[Perchlorate, sodium perchlorate]", "values": [{"measurement": "effect on NIS-mediated [125I] iodide accumulation", "setting": "NIS [1]", "value": "inhibited iodide accumulation; also recorded: inhibits NIS-mediated [^125I] iodide uptake"}]}, {"compound": "[131I-].[Na+]", "note": "[[^131I] iodide, sodium [^131I] iodide]", "values": [{"measurement": "tumor outcome at the delivered dose", "setting": "[2]", "value": "remission of this tumor"}, {"measurement": "tumors with complete response (shrunk beyond the limit of detection)", "setting": "[3]; NIS-FaDu established tumors (5 mm), 1 mCi [131I] iodide i.p.", "value": "eight of eight"}, {"measurement": "local adverse effects of radiotherapy", "setting": "[3]; mice given 1 mCi [131I] iodide i.p.", "value": "No local adverse effects"}, {"measurement": "tumors recurred", "setting": "[3]; [8]", "value": "two"}, {"measurement": "tumors remaining in complete remission", "setting": "[3]; [8]", "value": "six"}]}, {"compound": "[O]=[Re](=[O])(=[O])[O-]", "note": "[^188ReO4, Perrhenate]", "values": [{"measurement": "survival versus 131I treatment", "setting": "[4]", "value": "increased survival"}, {"measurement": "tissue accumulation of 188ReO4-", "setting": "[5]", "value": "thyroid, stomach, and NIS-expressing tumor tissue, also display high affinity"}, {"measurement": "in vitro uptake as compared to iodide", "setting": "NIS [6]", "value": "two- to three-fold higher"}, {"measurement": "t1/2", "setting": "[7]", "value": 16.9, "unit": "h"}]}, {"compound": "lactoperoxidase [LPO]", "values": [{"measurement": "cell-associated iodide during efflux", "setting": "Ad-NIS infected cells", "value": "significantly longer retention times; also recorded: increased levels of cell-associated iodide"}]}]}
